In patent publication US20210330744A1, “Methods and Compositions for Treating Neurodegeneration and Fibrosis” (Temple University-Of The Commonwealth System of Higher …, priority 2017, published 2021):

Experiments:
[1] = system: MEFs; experiment: α-SMA immunofluorescence (myofibroblast differentiation); type: cell-based, mouse; settings: wildtype MEFs, 48 hours
Experimental: For experiments that required adenoviral gene transfer, MEFs were incubated in adenovirus for 24 hours at which time the media was changed. To knockout Mat, MEFs were transduced with adenovirus encoding Cre-recombinase (Ad-Cre) or βgalactosidase (Ad-(βgal) for 24 h and experiments were performed 5 days post-infection in order to ensure sufficient time for protein turnover. For experiments using adenovirus encoding Glyco-High, Glyco-Low, or mito-R-GECO1, cells were incubated for an additional 24 hours prior to the experiment. The following adenoviruses have previously been described: NFAT-cl-GFP, Glyco-High, Glyco-Low, mito-R-GECO1 (De Windt et al., 2000; Kurland et al., 1992; Salabei et al., 2016; Zhao et al., 2011). Glyco-High and Glyco-Low adenoviruses were made and purified by Vector Labs using cDNA for a rat liver PFKFB1 isoform of phosphofructokinase 2 (PFK2)/ fructose-2,6-bisphosphatase (FBP2). […]
MEFs were seeded on coated 35-mm dishes. […] Images were acquired in the red (590ex/617em) and blue (350ex/461em) channels. α-SMA expression was assessed by quantifying fluorescence intensity and the percentage α-SMA positive cells. More than 50 cells per dish were analyzed.

[2] = system: PDH E1α; experiment: Western blot of phosphorylated PDH; type: cell-based, mouse; settings: MEFs, 0, 24, 48, or 72 h
Experimental: (§1) All protein samples were lysed by homogenization in RIPA buffer supplemented with phosphatase inhibitors and protease inhibitors. Samples were sonicated briefly and centrifuged at 5,000 g for 10 minutes. The supernatant was collected and used for further analysis. Protein amount was quantified using the Bradford Protein Assay and equal amounts of protein (10-50 μg) were run by electrophoresis on polyacrylamide Tris-glycine SDS gels. Gels were transferred to PVDF and membranes were blocked for 1 hour in Blocking Buffer followed by incubation with primary antibody overnight at 4° C. Membranes were washed in TBS-T 3 times for 5 minutes each and then incubated with secondary antibody for 1 hour at room temperature. After incubation with fluorescent secondary antibodies, membranes were washed in TB S-T 3 times for 5 minutes each and then imaged on a Licor Odyssey system. The following antibodies were used in the study: MCU (1:1,000), MCUb (1:250,), MICU1 (1:500,), MCUR1 (1:500), EMRE (1:250, Santa Cruz, sc-86337), VDAC (1:1,000), PDHE1α phospho 5293 (1:1,000), PDHE1α (1:1,000,), IDH3A (1:500), α-tubulin (1:1,000), ETC respiratory chain complexes (1:2,500), H3K4me3 (1:2,000), H3K9me3 (1:2,000), H3K27me3 (1:2,000), H3K4me2 (1:2,000), H3K9me2 (1:2,000), H3K27me2 (1:2,000), H3 (1:2000); and secondary antibodies: anti-mouse (1:12,000), anti-rabbit, (1:12,000), and anti-goat (1:12,000).

[3] = system: NFATc1; experiment: NFAT translocation assay; type: cell-based, mouse; settings: control cells (Ad-βgal), 24 hours
Experimental: MEFs were plated on coated 35-mm dishes and infected with Ad-NFATc1-GFP for 24 hours at which time live-cell images were taken followed by treatment with 10 ng m1^1 TGFP or 10 μM AngII for 24 hours. For live-cell imaging, cells were placed in a 37° C. heated chamber on a Carl Zeiss Axio Observer Z1 fluorescent microscope. Prior to imaging, MEFs were incubated with Hoechst 33342 to demarcate cell nuclei. Images were acquired in the green channel (490ex/525em) and blue channel (350ex/460em). NFAT localization was quantified as the nuclear/cytoplasmic ratio of GFP fluorescence. More than 50 cells per dish were analyzed.

[4] = system: MICU1; experiment: Western blot of mtCU components in WT MEFs; type: cell-based, mouse; settings: for MICU1 expression: 12 hours after treatment
Experimental: (§2) Myofibroblast differentiation was induced using 10 ng ml^−1 recombinant mouse Transforming growth factor-β (TGFβ) or 10 μM Angiotensin II (AngII,). In all experiments, FBS was reduced to 1% 24 hours prior to and during treatment with TGFβ or AngII.
as §1

[5] = system: MEFs; experiment: ECAR and OCR measurements (Seahorse XF96) in MEFs; type: cell-based, mouse; settings: for increase in glycolysis from baseline: at peak (TGFβ 48 hours, AngII ~12 hours)
Experimental: as §2
A Seahorse Bioscience XF96 extracellular flux analyzer was employed to measure extracellular acidification rates (ECAR) and oxygen consumption rates (OCR). ECAR was measured using the Glycolytic Stress Test Kit and OCR was measured using the Miro Stress Test Kit. To evaluate ECAR, 20,000 MEFs/well were plated in XF media pH 7.4 without supplementation. […] To evaluate OCR, 20,000 MEFs/well were plated in XF media pH 7.4 supplemented with 10 mM glucose and 1 mM sodium pyruvate. […] After each experiment, protein concentration was measured and wells were normalized using the Wave software.

[6] = system: 5-methylcytosine (5-mC); experiment: Global DNA methylation ELISA; type: cell-based, mouse; settings: MEFs
Experimental: To extract genomic DNA, cells were collected and washed with PBS followed by 2 h incubation at 60° C. in DNA isolation buffer (0.5% SDS, 100 mM NaCl, 50 mM Tris pH 8, 3 mM EDTA, 0.1 mg/mL proteinase K). DNA was extracted using chloroform followed by ethanol precipitation and dissolved in double-distilled water. DNA methylation was quantified using the MethylFlash™ Methylated DNA Quantification Kit. 100 nanograms of input DNA was used per reaction. Absorbance at 450-nm was measured using a Tecan Infinite F50 microplate reader.

[7] = system: H3K27me2; experiment: H3K27me2 ChIP-qPCR at Postn and Pdgfra loci; type: cell-based, mouse; settings: control cells (Ad-βgal), 12 hours
Experimental: ChIP was performed using the ChIP-IT High Sensitivity. Cells were fixed, lysed and sonicated for 30 minutes (30 seconds on, 30 seconds off) leading to chromatin fragments between 200 and 1200 base pairs. DNA-bound protein was immunoprecipitated using 2 μg anti-H3K27me2 or IgG. Following IP, cross-links were reversed, protein was removed, and DNA was purified. qPCR was performed with equal amounts of H3K27me2-immunoprecipitated sample, IgG-immunoprecipitated sample, and input sample. Values were normalized to input measurements and fold enrichment was calculated. qPCR primers (Table 4) were designed to target gene loci regions flanking or nearby myofibroblast transcription factor predicted binding sites according to Genomatrix-MatInspector Software analysis.

[8] = biological target: T1, mtCU (Mus musculus, UniProt Q3UMR5+Q8VCX5); experiment: Evaluation of mCa2+ uptake in permeabilized MEFs (Fura-2, Hill fit); type: cell-based
T1 construct: After treating wildtype (WT) MEFs with TGFβ for 12 hours, fibroblasts were permeabilized with digitonin; endogenous in cells; host or cells: wild-type (C57/BL6) mouse embryonic fibroblasts, digitonin-permeabilized, with or without 12 h TGFβ
T1 sequence (Q3UMR5 50-350): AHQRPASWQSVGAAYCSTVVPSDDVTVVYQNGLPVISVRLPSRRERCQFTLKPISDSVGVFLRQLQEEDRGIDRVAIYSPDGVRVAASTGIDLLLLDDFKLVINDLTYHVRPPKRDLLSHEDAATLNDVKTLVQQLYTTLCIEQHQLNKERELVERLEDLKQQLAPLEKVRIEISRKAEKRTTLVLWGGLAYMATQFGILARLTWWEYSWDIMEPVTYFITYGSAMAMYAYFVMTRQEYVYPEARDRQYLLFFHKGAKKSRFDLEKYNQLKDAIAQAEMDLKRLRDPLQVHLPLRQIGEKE
T1 sequence (Q8VCX5 34-477): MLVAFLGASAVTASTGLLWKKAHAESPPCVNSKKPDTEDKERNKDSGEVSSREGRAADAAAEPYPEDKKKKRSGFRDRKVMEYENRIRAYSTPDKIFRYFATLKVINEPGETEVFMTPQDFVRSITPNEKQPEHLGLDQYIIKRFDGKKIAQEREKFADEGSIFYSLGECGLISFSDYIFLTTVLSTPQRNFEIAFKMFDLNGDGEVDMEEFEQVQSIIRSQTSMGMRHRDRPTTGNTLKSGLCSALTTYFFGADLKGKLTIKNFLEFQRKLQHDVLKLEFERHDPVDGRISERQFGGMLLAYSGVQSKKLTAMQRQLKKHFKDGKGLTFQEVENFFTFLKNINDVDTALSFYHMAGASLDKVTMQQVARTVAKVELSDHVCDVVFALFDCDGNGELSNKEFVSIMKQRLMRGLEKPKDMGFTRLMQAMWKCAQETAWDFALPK
T1 sequence (Q9DB10 48-107 partner): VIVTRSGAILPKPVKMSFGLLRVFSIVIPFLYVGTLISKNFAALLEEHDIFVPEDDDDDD
T1 sequence (Q8CD10 23-432 partner): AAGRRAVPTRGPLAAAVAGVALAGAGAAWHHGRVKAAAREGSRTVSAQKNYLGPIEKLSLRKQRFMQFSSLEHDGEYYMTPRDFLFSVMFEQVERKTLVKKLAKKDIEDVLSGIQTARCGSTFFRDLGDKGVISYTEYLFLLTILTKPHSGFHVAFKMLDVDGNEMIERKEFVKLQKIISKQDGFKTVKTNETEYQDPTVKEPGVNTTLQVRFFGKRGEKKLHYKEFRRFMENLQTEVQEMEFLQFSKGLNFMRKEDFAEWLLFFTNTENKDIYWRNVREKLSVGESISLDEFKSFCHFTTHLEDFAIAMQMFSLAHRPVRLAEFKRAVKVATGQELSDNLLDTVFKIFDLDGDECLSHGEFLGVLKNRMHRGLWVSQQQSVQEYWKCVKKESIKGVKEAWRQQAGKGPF
Experimental: Before permeabilization, MEFs were washed in extracellular-like Ca^2+-free buffer (120 mM NaCl, 5 mM KCl, 1 mM KH2PO4, 0.2 mM MgCl2, 0.1 mM EGTA, 20 mM HEPEs-NaOH, pH 7.4). MEFs (1.5 million) were then transferred to intracellular-like medium (ICM) (120 mM KCl, 10 mM NaCl, 1 mM KH2PO4, 20 mM HEPES-Tris, protease inhibitors, 5 mM succinate, 2 μM thapsigargin, 40 μg ml^−1 digitonin, 10 μM CGP-37157 (NCLX inhibitor), pH 7.2). ICM was cleared with Chelex 100 to remove trace Ca^2+. MEFs were gently stirred and 1 μM Fura-2 was added to monitor extra-mitochondrial Ca^2+. At 20 seconds, JC-1 was added to monitor Δψ. Fluorescence signals were monitored in a temperature controlled (37° C.) multi-wavelength-excitation/dual-wavelength-emission spectrofluorometer (Delta RAM, Photon Technology Int.) using 490-nm excitation (ex)/535-nm emission (em) for the JC-1 monomer, 570-nm ex/595-nm em for the J-aggregate of JC-1, and 340- and 380-nm ex/510-nm em for Fura-2. […]
To quantify actual Ca^2+ content, a standard curve of Ca^2+ binding Fura-2 was generated from serial diluted Ca^2+ standards (0.01-120 μM) in ICM. Fura-2 fluorescence ratio was converted to [Ca^2+] by the following equation: [Ca^2+]=Kd*(R−Rmin)/(Rmax−R)*Sf2/Sb2. (Rmin (ratio in 0-Ca^2+)=1.341; Rmax (ratio at saturation)=27.915; Sf2 (380/510 reading in 0-Ca^2+)=15822.14; Sb2 (380/510 reading with Ca^2+ saturation)=1794.32). […]

[9] = system: MEFs; experiment: Metabolomic profiling of MEFs (CE-TOFMS, CE-QqQMS); type: cell-based, mouse
Experimental: Cells in a 10 cm dish were washed with 5% (w/w) mannitol (10mL for the first wash, 2 mL for the second wash) and extracted in 800 μL methanol plus 550 μL internal standard solution (Human Metabolome Technologies, HMT). Extracted solution was spun down at 2,300×g at 4° C. for 5 minutes. The supernatant was transferred into centrifugal filter units (HMT) and centrifuged at 9,100×g at 4° C. for ˜3.5 h until no liquid remained in the filter cup. Filtrate was frozen at −80° C. and shipped to HMT for analysis by CE-TOFMS and CE-QqQMS (Boston, Mass.). Filtrate was centrifugally concentrated and resuspended in 50 μl of ultrapure water immediately before the measurement.
Cationic metabolites were analyzed using an Agilent CE-TOFMS system Machine No. 3 and a fused silica capillary (i.d. 50 μm×80 cm) with Cation Buffer Solution as the electrolyte. The sample was injected at a pressure of 50 mbar for 10 seconds. The applied voltage was set at 27 kV. Electrospray ionization-mass spectrometry (ESI-MS) was conducted in the positive ion mode, and the capillary voltage was set at 4,000 V. The spectrometer was scanned from m/z 50 to 1,000.
Anionic metabolites were analyzed using an Agilent Capillary Electrophoresis System equipped with an Agilent 6460 TripleQuad LC/MS Machine No. QqQ3 and a fused silica capillary (i.d. 50 μm×80 cm) with Anion Buffer Solution as the electrolyte. The sample was injected at a pressure of 50 mbar for 25 seconds. The applied voltage was set at 30 kV. ESI-MS was conducted in the positive and negative ion mode, and the capillary voltage was set at 4,000 V for positive and 3, 500 V for negative mode.
Peaks detected in CE-TOFMs analysis were extracted using automatic integration software and those in CE-QqQMS analysis were extracted using automatic integration software in order to obtain peak information including m/z, migration time, and peak area. The peak area was then converted to relative peak area by the following equation: Relative peak area=Metabolite Peak Area/(Internal Standard Peak Area x Normalization Factor). The peaks were annotated based on the migration times in CE and m/z values determined by TOFMS. Putative metabolites were then assigned from HMT metabolite database on the basis of m/z and migration time. All metabolite concentrations were calculated by normalizing the peak area of each metabolite with respect to the area of the internal standard and by using standard curves, which were obtained by three-point calibrations. A heat map was generated using ClustVis. Unit variance was applied to rows. Rows were clustered using Manhattan distance and average linkage.

[10] = system: H3K27me2; experiment: Western blot of methylated histone 3 lysine residues; type: cell-based, mouse; settings: 0, 12 or 24 h treatment
Experimental: as §1

| Compound | percentage of α-SMA positive cells [1] | ratio of p-PDH E1α/PDH [2] | nuclear translocation of NFATc1 [3] | MICU1 expression [4] | basal respiration [5] | increase in glycolysis from baseline [5] | global DNA methylation [6] | H3K27me2 enrichment at the Postn and Pdgfra loci [7] | MICU1/MCU ratio [4] | Hill coefficient of mCa2+ uptake dose response curve ([8]; WT MEFs treated 12 hours, control cells 4.29) | mCa2+ uptake ([8]; following delivery of ~0.5-2 μM [Ca2+], 12 hours treatment) | α-ketoglutarate (αKG) ([9]; 12 h after treatment) | F-1,6-BP ([9]; 12 h post-treatment) | citrate levels ([9]; 12 h post-treatment) | pyruvate ([9]; control MEFs 12 h post-treatment, from 1000 at baseline) | glutamine (Gln) and glutamate (Glu) levels ([9]; control cells) | increase in αKG ([9]; treated fibroblasts) | dimethylation of H3K27 (H3K27me2) [10] | increase in basal respiration from baseline ([5]; peaking 48 hours after treatment) |
| --- | --- | --- | --- | --- | --- | --- | --- | --- | --- | --- | --- | --- | --- | --- | --- | --- | --- | --- | --- |
| COC(=O)CCC(=O)C(=O)OC [DM-αKG, dimethyl-αKG] | increased the percentage of α-SMA positive cells to the same extent as 48 hours of TGFβ treatment | – | – | – | – | – | – | – | – | – | – | – | – | – | – | – | – | – | – |
| Angiotensin II (DRVYIHPF; Angiotensin-2; UniProt P01019 25-32, looked up) [AngII, pro-fibrotic agonist] | – | increased | induced nuclear translocation of NFATc1 | similarly large increase | slight decrease | 45% | – | – | – | – | – | – | – | – | – | – | – | – | – |
| TGFβ: recombinant mouse Transforming growth factor-β, pro-fibrotic agonist | – | increased | induced nuclear translocation of NFATc1 | dramatic increase | – | > 400% | Slight, but non-significant, decreases | lost | rapidly increased | 10.27 | decrease | increased | significantly increased | significantly reduced | 1600 pmol/million cells | decreased | ~2 fold | progressive decrease | ~135% |
